Reference: PubChem BioAssay (NCI)
Several values for one entry are separate records, joined by “and”; a condition that tells them apart may be missing. Identical values can stand only once.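 Five compound concentrations were applied to cells in 96-well plates for 48 hours; endpoints were derived by simple linear interpolation of the resulting dose-response curve. Here, GI50 denotes the concentration required for 50% inhibition of growth. At the TGI there is no net growth.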

What was measured:
Assay in all cases: growth of human tumour cells (NCI), 48 h; in the data active = GI50 below about 0.43 µM; inactive = the rest
[1] = test system: MALME-3M melanoma
[2] = test system: 786-0 renal
[3] = test system: HCT-15 colon
[4] = test system: K-562 leukemia
[5] = test system: MDA-MB-231 breast
[6] = test system: HS 578T breast
[7] = test system: BT-549 breast
[8] = test system: A549 NSCLC
[9] = test system: NCI-H23 lung
[10] = test system: KM12 colon
[11] = test system: MDA-MB-435

O=C1C/C(=C\O)C(=O)c2ccccc2N1
> 100 µM: TGI [1] | TGI [2] | TGI [3] | TGI [4] | TGI [5] | TGI [6] | TGI [7] | TGI [8] | TGI [9] | TGI [10] | TGI [11]

COC(=O)Cc1c(C2=Nc3ccccc3C2(O)CC(=O)OC)[nH]c2ccccc12 (stereo unspecified)
> 100 µM: TGI [1] | TGI [2] | TGI [3] | TGI [4] | TGI [5] | TGI [6] | TGI [7] | TGI [8] | TGI [9] | TGI [10] | TGI [11]

O=C1c2ccccc2S(=O)(=O)c2ccccc21
> 100 µM: TGI [1] | TGI [2] | TGI [3] | TGI [4] | TGI [5] | TGI [6] | TGI [7] | TGI [8] | TGI [9] | TGI [10] | TGI [11]

C/C(=N\N=C(N)N)c1c(C(=O)OCCCCCCOC(=O)c2nc3sccn3c2/C(C)=N/N=C(N)N)nc2sccn12
50.1 µM: TGI [4]
> 100 µM: TGI [1] | TGI [2] | TGI [3] | TGI [5] | TGI [6] | TGI [7] | TGI [8] | TGI [9] | TGI [10] | TGI [11]

CC(=O)N(C(C)=O)n1c(Cc2ccc(Cl)cc2)nn(C(C)=O)c1=O
> 100 µM: TGI [1] | TGI [2] | TGI [3] | TGI [4] | TGI [5] | TGI [6] | TGI [7] | TGI [8] | TGI [9] | TGI [10] | TGI [11]

CCCCCCCCCCCCCCCCP(=O)(O)OP(=O)(O)OCC1OC(n2ccc(N)nc2=O)C(O)C1O (stereo unspecified)
inactive: GI50 [1] > 100 µM and 14 µM | GI50 [3] 97.5 µM and 19.3 µM | GI50 [5] > 100 µM and 37.9 µM | GI50 [6] 83.2 µM and 29.2 µM | GI50 [7] > 100 µM and 24.3 µM | GI50 [9] > 100 µM and 13.9 µM | GI50 [11] > 100 µM and 14.6 µM
> 100 µM and 27.6 µM: TGI [2]
> 100 µM and 50.3 µM: TGI [1]
> 100 µM: TGI [3] | TGI [4] | TGI [5] | TGI [6] | TGI [7] | TGI [8] | TGI [9] | TGI [10] | TGI [11]

[N-]=[N+]=NC1(c2ccccc2)C(=O)Nc2ccccc2C1=O (stereo unspecified)
34.8 µM: TGI [7]
76.9 µM: TGI [6]
> 100 µM: TGI [1] | TGI [2] | TGI [3] | TGI [4] | TGI [5] | TGI [8] | TGI [9] | TGI [10]
44.1 µM: TGI [11]

CC1CN=C(c2cccc(OCc3ccc(COc4cccc(C5=NCC(C)N5)c4)cc3)c2)N1 (stereo unspecified)
81.7 µM: TGI [10]
> 100 µM: TGI [1] | TGI [2] | TGI [3] | TGI [4] | TGI [5] | TGI [6] | TGI [7] | TGI [8] | TGI [9] | TGI [11]

CC1=NN(c2ccc(C)cc2)C2(C1)SCC(=O)N2c1nc2ccccc2s1 (stereo unspecified)
71 µM: TGI [2]
77.5 µM: TGI [9]
> 100 µM: TGI [1] | TGI [3] | TGI [4] | TGI [6] | TGI [7] | TGI [8] | TGI [10] | TGI [11]
41.4 µM: TGI [5]

CCOC(=O)c1cc(-c2ccc(OC)c(OC)c2)c[nH]1
> 10 µM: TGI [1] | TGI [2] | TGI [3] | TGI [4] | TGI [5] | TGI [6] | TGI [7] | TGI [8] | TGI [9] | TGI [10] | TGI [11]

C=C[C@]1(C)CC[C@]2(C)C(CC[C@@]3(C)C2C[C@H](O)[C@H](O)[C@@]3(C)O)C1 (stereo partly specified)
> 100 µM: TGI [1] | TGI [2] | TGI [3] | TGI [4] | TGI [5] | TGI [6] | TGI [7] | TGI [8] | TGI [9] | TGI [10] | TGI [11]

O=C(c1ccccc1F)c1c(NCc2ccccc2)c(=O)c1=O
> 100 µM: TGI [1] | TGI [2] | TGI [3] | TGI [4] | TGI [5] | TGI [6] | TGI [7] | TGI [8] | TGI [9] | TGI [10] | TGI [11]

CSc1c(C(C)=O)c(O)n(-c2ccc(Cl)cc2)c(=O)c1C#N
99.5 µM: TGI [3]
> 100 µM: TGI [1] | TGI [2] | TGI [5] | TGI [6] | TGI [7] | TGI [8] | TGI [9] | TGI [10] | TGI [11]
92.2 µM: TGI [4]

Cc1ccc(-c2cc(-c3ccc(Cl)cc3)nc(/N=C3\C(=O)N(CN4CCCCC4)c4ccc(Cl)cc43)n2)cc1
42.9 µM: TGI [11]
57.2 µM: TGI [8]
44.6 µM: TGI [2]
49.4 µM: TGI [6]
35.4 µM: TGI [10]
51.5 µM: TGI [9]
> 100 µM: TGI [1] | TGI [3] | TGI [4] | TGI [5] | TGI [7]

O=C(C[C@@H]1NCCC[C@H]1O)Cn1cnc2cc(Br)c(Cl)cc2c1=O
0.285 µM: TGI [5]
1.36 µM: TGI [6]
0.403 µM: TGI [3]
0.0727 µM: TGI [4]
0.259 µM: TGI [7]
0.143 µM: TGI [8]
0.076 µM: TGI [11]
0.135 µM: TGI [2]
0.101 µM: TGI [10]
0.144 µM: TGI [1]
0.11 µM: TGI [9]

O=[N+]([O-])c1ccc2nc3ccc([N+](=O)[O-])cn3c2c1
> 100 µM: TGI [1] | TGI [2] | TGI [3] | TGI [4] | TGI [5] | TGI [6] | TGI [7] | TGI [8] | TGI [9] | TGI [10] | TGI [11]

Oc1ccc2ccccc2c1-c1nnc(CCCCCCCCc2nnc(-c3c(O)ccc4ccccc34)o2)o1
25 µM and 32.9 µM: TGI [8]
8.33 µM and 58.2 µM: TGI [1]
> 100 µM: TGI [7]
6.33 µM and > 62.2 µM: TGI [9]
inactive: GI50 [1] 8.98 µM | GI50 [3] 0.563 µM | GI50 [4] 1.68 µM | GI50 [5] 0.583 µM | GI50 [6] 19.6 µM | GI50 [9] 1.22 µM | GI50 [10] 3.96 µM | GI50 [11] 3.5 µM
25 µM and > 100 µM: TGI [3] | TGI [6] | TGI [10] | TGI [11]
25 µM and > 57.5 µM: TGI [4]
8.94 µM and 30.9 µM: TGI [2]
